According to US10286034B2, “Uses of bremelanotide in therapy for female sexual dysfunction” (Palatin Technologies, Inc., priority 2012, dated 2019):
Marks after values point to notes of the source that are not given here.

Test: Example 1: ambulatory blood pressure monitoring after in-clinic dose
Format: in vivo, human
Conditions: for Pulse: treatment group difference (from placebo) in mean change: in bpm; for DBP: treatment group difference (from placebo) in mean change / SBP: treatment group difference (from placebo) in mean change: in mmHg (unit assumed); for HR-BP Product: treatment group difference (from placebo) in mean change: in mmHg·bpm (unit assumed)
Method: Ambulatory blood pressure monitoring was conducted following both placebo and randomized treatment group in-clinic administrations. Three periods of ambulatory blood pressure monitoring were included, the first period was from before to 24 hours after a single, in-clinic dose of placebo (to establish a baseline); the second and third periods occurred from before to 24 hours after each of 2 single, in-clinic doses of double-blind treatment, administered within 14 days of each other. Blood samples for pharmacokinetic analysis were collected before and at 0.5, 1.0, and 2.0 hours after each in-clinic bremelanotide single-dose treatment (double-blind only), to permit analysis of concentration-response relationships.
Mean changes in blood pressure were characterized in all subjects based on sequential supervised dosing of single-blind subcutaneous placebo and two doses of randomized study drug. The primary analysis for mean changes was the difference between treatment groups in the change from single-blind placebo to randomized drug (Visit 2 vs. Visits 5/7). There were between 86 to 100 subjects in each dose group.
Although there were an increased number of outliers for maximal changes from baseline in systolic blood pressure in drug-treated patients, the duration of these events was quite limited. The interrogation interval during ambulatory blood pressure monitoring assessments of 15 minutes allowed definition of the maximal duration of such excursions. […] The clinical significance of such changes, if any, is small.

[1] = 0.75 mg SC, interval 0-24 h, V5
[2] = 0.75 mg SC, interval 0-24 h, V7
[3] = 0.75 mg SC, interval 8-24 h, V5
[4] = 0.75 mg SC, interval 8-24 h, V7
[5] = 1.25 mg SC, interval 0-24 h, V5
[6] = 1.25 mg SC, interval 0-24 h, V7

CCCC[C@H](NC(C)=O)C(=O)N[C@H]1CC(=O)NCCCC[C@@H](C(=O)O)NC(=O)[C@H](Cc2c[nH]c3ccccc23)NC(=O)[C@H](CCCNC(=N)N)NC(=O)[C@@H](Cc2ccccc2)NC(=O)[C@H](Cc2c[nH]cn2)NC1=O [bremelanotide, Ac-Nle-cyclo(-Asp-His-D-Phe-Arg-Trp-Lys)-OH]
Pulse: treatment group difference (from placebo) in mean change (0.75 mg SC, interval 0-4 h, V5): −5.2* | DBP: treatment group difference (from placebo) in mean change (0.75 mg SC, interval 0-4 h, V5): 1.5 | SBP: treatment group difference (from placebo) in mean change (0.75 mg SC, interval 0-4 h, V5): 1.8 | HR-BP Product: treatment group difference (from placebo) in mean change (0.75 mg SC, interval 0-4 h, V5): −492.8* | Pulse: treatment group difference (from placebo) in mean change (0.75 mg SC, interval 0-4 h, V7): −4.8* | DBP: treatment group difference (from placebo) in mean change (0.75 mg SC, interval 0-4 h, V7): 0.6 | SBP: treatment group difference (from placebo) in mean change (0.75 mg SC, interval 0-4 h, V7): 1.1 | HR-BP Product: treatment group difference (from placebo) in mean change (0.75 mg SC, interval 0-4 h, V7): −491.9* | Pulse: treatment group difference (from placebo) in mean change [1]: −2.2* | DBP: treatment group difference (from placebo) in mean change [1]: 1.1* | SBP: treatment group difference (from placebo) in mean change [1]: 1.1 | HR-BP Product: treatment group difference (from placebo) in mean change [1]: −187.7 | Pulse: treatment group difference (from placebo) in mean change [2]: −1.6 | DBP: treatment group difference (from placebo) in mean change [2]: 1.3* | SBP: treatment group difference (from placebo) in mean change [2]: 1.5 | HR-BP Product: treatment group difference (from placebo) in mean change [2]: −82.3 | Pulse: treatment group difference (from placebo) in mean change (0.75 mg SC, interval 4-8 h, V5): −6.2* | DBP: treatment group difference (from placebo) in mean change (0.75 mg SC, interval 4-8 h, V5): 1.3 | SBP: treatment group difference (from placebo) in mean change (0.75 mg SC, interval 4-8 h, V5): 0.9 | HR-BP Product: treatment group difference (from placebo) in mean change (0.75 mg SC, interval 4-8 h, V5): −676.5* | Pulse: treatment group difference (from placebo) in mean change (0.75 mg SC, interval 4-8 h, V7): −5.5* | DBP: treatment group difference (from placebo) in mean change (0.75 mg SC, interval 4-8 h, V7): 1.7 | SBP: treatment group difference (from placebo) in mean change (0.75 mg SC, interval 4-8 h, V7): 1.6 | HR-BP Product: treatment group difference (from placebo) in mean change (0.75 mg SC, interval 4-8 h, V7): −503.3* | Pulse: treatment group difference (from placebo) in mean change [3]: −0.4 | DBP: treatment group difference (from placebo) in mean change [3]: 1.0 | SBP: treatment group difference (from placebo) in mean change [3]: 0.9 | HR-BP Product: treatment group difference (from placebo) in mean change [3]: 5.2 | Pulse: treatment group difference (from placebo) in mean change [4]: 0.1 | DBP: treatment group difference (from placebo) in mean change [4]: 1.3* | SBP: treatment group difference (from placebo) in mean change [4]: 1.6 | HR-BP Product: treatment group difference (from placebo) in mean change [4]: 114.9 | Pulse: treatment group difference (from placebo) in mean change (1.25 mg SC, interval 0-4 h, V5): −5.2* | DBP: treatment group difference (from placebo) in mean change (1.25 mg SC, interval 0-4 h, V5): 3.0* | SBP: treatment group difference (from placebo) in mean change (1.25 mg SC, interval 0-4 h, V5): 2.4* | HR-BP Product: treatment group difference (from placebo) in mean change (1.25 mg SC, interval 0-4 h, V5): −436.4* | Pulse: treatment group difference (from placebo) in mean change (1.25 mg SC, interval 0-4 h, V7): −6.1* | DBP: treatment group difference (from placebo) in mean change (1.25 mg SC, interval 0-4 h, V7): 2.2* | SBP: treatment group difference (from placebo) in mean change (1.25 mg SC, interval 0-4 h, V7): 2.1* | HR-BP Product: treatment group difference (from placebo) in mean change (1.25 mg SC, interval 0-4 h, V7): −583.3* | Pulse: treatment group difference (from placebo) in mean change [5]: −2.9* | DBP: treatment group difference (from placebo) in mean change [5]: 1.9* | SBP: treatment group difference (from placebo) in mean change [5]: 1.1 | HR-BP Product: treatment group difference (from placebo) in mean change [5]: −265.9 | Pulse: treatment group difference (from placebo) in mean change [6]: −2.6* | DBP: treatment group difference (from placebo) in mean change [6]: 1.7* | SBP: treatment group difference (from placebo) in mean change [6]: 1.6* | HR-BP Product: treatment group difference (from placebo) in mean change [6]: −206.5 | Pulse: treatment group difference (from placebo) in mean change (1.25 mg SC, interval 4-8 h, V5): −6.1* | DBP: treatment group difference (from placebo) in mean change (1.25 mg SC, interval 4-8 h, V5): 2.2* | SBP: treatment group difference (from placebo) in mean change (1.25 mg SC, interval 4-8 h, V5): 1.4 | HR-BP Product: treatment group difference (from placebo) in mean change (1.25 mg SC, interval 4-8 h, V5): −621.0* | Pulse: treatment group difference (from placebo) in mean change (1.25 mg SC, interval 4-8 h, V7): −6.5* | DBP: treatment group difference (from placebo) in mean change (1.25 mg SC, interval 4-8 h, V7): 0.9
